Test systems include K562; NCI-H226; KM12; T47D; MOLT-4; DU-145; UACC-257; OVCAR-5; SF-295; Hs-578T; HL-60; HCC 2998; RXF 393; SF-539; MDA-MB-231; U-251; RPMI-8226; SNB-19; ACHN; A498.
What all share (test): NCI anticancer screen, dose series, 48 h

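A five-concentration, 48-hour dose response in 96-well plates underlies each endpoint, interpolated linearly between surrounding concentrations. GI50: concentration for 50% inhibition of growth.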 The source made the active and inactive calls. Cut-off read from the data, not from the text of the source: active = GI50 up to about 1.1 µM and inactive = higher.

As for `CCN(CC)C(=O)Cn1c(C)cc2ccccc21`, the GI50 in the experiment on K562, in the experiment on NCI-H226, in the experiment with KM12, in the experiment with T47D, in the experiment with MOLT-4 and in the experiment on DU-145 was > 100 µM (inactive) in each case. Also, the GI50 in the experiment with UACC-257, with OVCAR-5, in the experiment with SF-295, in the experiment on Hs-578T, in the experiment on HL-60 and in the experiment on HCC 2998 was > 100 µM (inactive) each time. Moreover, the GI50 with RXF 393, with SF-539, with MDA-MB-231, in the experiment with U-251, with RPMI-8226 and in the experiment on SNB-19 was > 100 µM (inactive) in each case. Besides, the GI50 in the experiment with ACHN was > 100 µM (inactive).

In the case of `Cc1c(O)c(=O)ccn1CCc1c[nH]c2ccccc12`, the GI50 is 14.4 µM (inactive) in the experiment with K562; 22 µM (inactive) in the experiment on KM12; 22.3 µM (inactive) in the experiment on T47D; 8.2 µM (inactive) in the experiment on MOLT-4; 6.44 µM (inactive) in the experiment on DU-145; 3.92 µM (inactive) in the experiment with UACC-257. The GI50 is 14.6 µM (inactive) with OVCAR-5; 3.93 µM (inactive) in the experiment with SF-295; 11.7 µM (inactive) with Hs-578T; 19.4 µM (inactive) in the experiment on HL-60; 19.7 µM (inactive) in the experiment with SF-539; 0.718 µM (active) in the experiment with MDA-MB-231. Also, the GI50 was 6.55 µM (inactive) with U-251, 3.69 µM (inactive) in the experiment with RPMI-8226, 6.81 µM (inactive) in the experiment on SNB-19 and 3.08 µM (inactive) with ACHN.

Turning to `COC(=O)c1ccccc1C1=C([N+](=O)[O-])C(c2cccc(Br)c2)C(C#N)=C(N)O1` (stereo not given), the GI50 in the experiment on K562 is 19.9 µM (inactive); in the experiment on NCI-H226 it was > 100 µM (inactive); in the experiment with KM12 it was > 10 µM (inactive); in the experiment on T47D it was 28.3 µM (inactive); with MOLT-4 it was 25.4 µM (inactive); with DU-145 it was 32.3 µM (inactive). Also, the GI50 is 36.1 µM (inactive) in the experiment with UACC-257; > 100 µM (inactive) in the experiment with OVCAR-5; > 100 µM (inactive) with SF-295; 18.3 µM (inactive) with Hs-578T; 29 µM (inactive) in the experiment with HL-60; 26.3 µM (inactive) in the experiment on HCC 2998. Also, the GI50 is 18.3 µM (inactive) in the experiment with RXF 393; 61 µM (inactive) with SF-539; 73.8 µM (inactive) in the experiment on MDA-MB-231; > 100 µM (inactive) in the experiment on U-251; 23.7 µM (inactive) with RPMI-8226; 91.6 µM (inactive) in the experiment on SNB-19. Besides, the GI50 in the experiment on ACHN was 23.6 µM (inactive).

On to `CSc1nc(Cl)c2c(n1)Sc1nc3ccccc3n1N=C2`, for which the GI50 in the experiment on K562 was 21.3 µM (inactive); with NCI-H226 it was 62.7 µM (inactive); with KM12 it was 37.8 µM (inactive); in the experiment on T47D, 23.5 µM (inactive); with MOLT-4, 21.7 µM (inactive); in the experiment on DU-145, > 100 µM (inactive). Moreover, the GI50 in the experiment with UACC-257 is 35.8 µM (inactive); with OVCAR-5, 28.9 µM (inactive); in the experiment on SF-295, > 100 µM (inactive); in the experiment on Hs-578T, 26.7 µM (inactive); in the experiment with A498, > 100 µM (inactive); with HCC 2998, 26.5 µM (inactive). Further, the GI50 was 22.6 µM (inactive) in the experiment on RXF 393; 23.9 µM (inactive) in the experiment with MDA-MB-231; 55.6 µM (inactive) in the experiment on U-251; 21.6 µM (inactive) in the experiment on RPMI-8226; > 100 µM (inactive) with SNB-19; 23.7 µM (inactive) in the experiment on ACHN.

Turning to `Cn1c(=O)nc2n(CCO)ccnc-2c1=O`, the GI50 in the experiment on K562, with NCI-H226, in the experiment with KM12, in the experiment on T47D, in the experiment with MOLT-4 and in the experiment with DU-145 was > 100 µM (inactive) each time. The GI50 is > 100 µM (inactive) in the experiment on UACC-257; > 100 µM (inactive) in the experiment on OVCAR-5; > 100 µM (inactive) in the experiment with SF-295; 91.4 µM (inactive) in the experiment on Hs-578T; > 100 µM (inactive) in the experiment on A498; > 100 µM (inactive) in the experiment with HCC 2998. Further, the GI50 in the experiment with RXF 393, in the experiment on SF-539, in the experiment with MDA-MB-231, with U-251, in the experiment on RPMI-8226 and in the experiment on SNB-19 was > 100 µM (inactive) throughout. For the same molecule, in the experiment on ACHN, the GI50 is > 100 µM (inactive).

As for `CC(C)[C@@H]1CC[C@@H](C)C[C@H]1OC(=O)c1c2n(c3ccccc13)C[C@H]1OC(C)(C)O[C@@H]21`, the GI50 in the experiment on K562 is 4.53 µM (inactive); with NCI-H226, 22.3 µM (inactive); in the experiment with KM12, 9.08 µM (inactive); in the experiment with T47D, 15.2 µM (inactive); in the experiment on MOLT-4, 3.87 µM (inactive); in the experiment on DU-145, 20 µM (inactive). Further, the GI50 was 6.95 µM (inactive) with UACC-257; > 100 µM (inactive) in the experiment with OVCAR-5; 6.46 µM (inactive) in the experiment with SF-295; 16.7 µM (inactive) with Hs-578T; 5.56 µM (inactive) with HL-60; 26.3 µM (inactive) in the experiment with HCC 2998. Besides, the GI50 in the experiment on RXF 393 was 13.7 µM (inactive); in the experiment on MDA-MB-231 it was 23 µM (inactive); in the experiment with U-251, 5.14 µM (inactive); in the experiment on RPMI-8226, 3.61 µM (inactive); with ACHN, 8.22 µM (inactive).

Consider `O=c1[nH]nc(-c2ccccc2)n1/N=C/c1ccncc1`, for which the GI50 is > 100 µM (inactive) in the experiment on K562; 97.7 µM (inactive) in the experiment with NCI-H226; > 100 µM (inactive) in the experiment on KM12; > 100 µM (inactive) with T47D; > 100 µM (inactive) in the experiment with MOLT-4; > 100 µM (inactive) in the experiment with DU-145. Also, the GI50 in the experiment on UACC-257 is > 100 µM (inactive); in the experiment on OVCAR-5 it was 37.7 µM (inactive); in the experiment on SF-295, > 100 µM (inactive); in the experiment with Hs-578T it was 26.2 µM (inactive); with HL-60 it was > 100 µM (inactive); in the experiment on A498, 24.9 µM (inactive). For the same molecule, the GI50 is > 100 µM (inactive) with HCC 2998; 62.5 µM (inactive) in the experiment on RXF 393; 61.8 µM (inactive) with SF-539; > 100 µM (inactive) in the experiment with U-251; > 100 µM (inactive) in the experiment on RPMI-8226; > 100 µM (inactive) in the experiment on SNB-19. Besides, the GI50 in the experiment on ACHN was > 100 µM (inactive).

Turning to `O=C(O)C/N=C(\C(=N\CC(=O)O)c1ccccc1)c1ccccc1`, the GI50 in the experiment with K562 is > 100 µM (inactive); in the experiment with NCI-H226 it was > 100 µM (inactive); in the experiment on KM12, > 100 µM (inactive); in the experiment on T47D it was 68.5 µM (inactive); with MOLT-4, > 100 µM (inactive); in the experiment with DU-145, > 100 µM (inactive). Further, the GI50 with UACC-257, in the experiment with OVCAR-5, with SF-295, in the experiment with Hs-578T, in the experiment on A498 and with HCC 2998 was > 100 µM (inactive) each time. For the same molecule, the GI50 in the experiment with RXF 393 is > 100 µM (inactive); with MDA-MB-231, > 100 µM (inactive); with U-251, > 100 µM (inactive); in the experiment with RPMI-8226, 85.7 µM (inactive); with SNB-19, > 100 µM (inactive); with ACHN, > 100 µM (inactive).

Regarding `Cc1nnc2n1-c1ccccc1C(=S)N1CSCC21` (stereo not given), the GI50 with K562, in the experiment on NCI-H226, in the experiment on KM12, in the experiment on T47D, in the experiment with MOLT-4 and in the experiment with DU-145 was > 100 µM (inactive) in each case. Further, the GI50 in the experiment with UACC-257, with OVCAR-5, with SF-295, in the experiment on Hs-578T, in the experiment on A498 and in the experiment on HCC 2998 was > 100 µM (inactive) each time. The GI50 with RXF 393, with MDA-MB-231, with U-251, in the experiment on RPMI-8226, in the experiment on SNB-19 and in the experiment with ACHN was > 100 µM (inactive) in each case.

With `CSc1n[nH]c2[nH]nc(C)c12`, the GI50 with K562 was > 74 µM (inactive); in the experiment on NCI-H226 it was > 100 µM (inactive); in the experiment with KM12, > 100 µM (inactive); with T47D, > 100 µM (inactive); with MOLT-4 it was 8.53 µM (inactive); with DU-145, > 100 µM (inactive). The GI50 in the experiment on UACC-257, in the experiment on OVCAR-5, in the experiment on SF-295, in the experiment with Hs-578T, in the experiment on A498 and in the experiment with HCC 2998 was > 100 µM (inactive) each time. The GI50 in the experiment on RXF 393, in the experiment on SF-539, in the experiment with MDA-MB-231, in the experiment on U-251, with RPMI-8226 and in the experiment on SNB-19 was > 100 µM (inactive) in each case. Moreover, the GI50 in the experiment with ACHN was > 100 µM (inactive).

Take `Fc1cccc(F)c1C1SCc2nc3cc(Cl)c(Cl)cc3n21` (stereo not given): the GI50 in the experiment on K562, in the experiment on KM12, in the experiment with T47D, with MOLT-4, in the experiment with DU-145 and in the experiment on UACC-257 was > 100 µM (inactive) throughout. The GI50 with OVCAR-5, in the experiment on SF-295, in the experiment on Hs-578T, with HL-60, with HCC 2998 and in the experiment on RXF 393 was > 100 µM (inactive) throughout. Besides, the GI50 in the experiment with SF-539, with MDA-MB-231, with U-251, in the experiment on RPMI-8226, in the experiment on SNB-19 and with ACHN was > 100 µM (inactive) each time.
